Measured values taken from ChEMBL document CHEMBL1201862, “PubChem BioAssay data set” (2004).
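The compound was tested at five concentrations on cells cultured in 96-well plates, with a 48-hour exposure period. GI50: concentration for 50% inhibition of growth.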 Active and inactive are the calls of the source. Rule as the data show it: active = GI50 up to about 1.1 µM and inactive = higher.

Columns and labels:
Assay in all cases: growth of human tumour cells (NCI), 48 h
786-0 = system: 786-0
A549 = system: A549
ACHN = system: ACHN
BT-549 = system: BT-549
CCRF-CEM = system: CCRF-CEM
COLO 205 = system: COLO 205
HCC 2998 = system: HCC 2998
IGROV-1 = system: IGROV-1
K562 = system: K562
KM12 = system: KM12
MCF7 = system: MCF7
MOLT-4 = system: MOLT-4
Malme-3M = system: Malme-3M
NCI-H23 = system: NCI-H23
NCI/ADR-RES = system: NCI/ADR-RES
SK-MEL-2 = system: SK-MEL-2
SK-MEL-5 = system: SK-MEL-5
SNB-75 = system: SNB-75
T47D = system: T47D
DMS-273 = system: DMS-273

Row | Structure (SMILES) | GI50 (786-0) | GI50 (A549) | GI50 (ACHN) | GI50 (BT-549) | GI50 (CCRF-CEM) | GI50 (COLO 205) | GI50 (HCC 2998) | GI50 (IGROV-1) | GI50 (K562) | GI50 (KM12) | GI50 (MCF7) | GI50 (MOLT-4) | GI50 (Malme-3M) | GI50 (NCI-H23) | GI50 (NCI/ADR-RES) | GI50 (SK-MEL-2) | GI50 (SK-MEL-5) | GI50 (SNB-75) | GI50 (T47D) | GI50 (DMS-273)
1 | CC1CC[C@@]2(OC1)O[C@H]1[C@H](O)[C@H]3[C@@H]4CC[C@H]5C[C@@H](OC6OC(CO)C(OC7OC(CO)C(O)C(OC8OCC(O)C(O)C8O)C7OC7OC(CO)C(O)C(O)C7OC7OC(CO)C(O)C(O)C7O)C(O)C6O)[C@H](O)C[C@]5(C)[C@H]4CC[C@]3(C)[C@H]1[C@@H]2C (some centres undefined) | 3.12 µM (inactive) | 3.47 µM (inactive) | > 10 µM (inactive) | > 10 µM (inactive) | 0.942 µM (active) | > 10 µM (inactive) | > 10 µM (inactive) | 3.7 µM (inactive) | 1.77 µM (inactive) | 4.29 µM (inactive) | 2.82 µM (inactive) | 0.144 µM (active) | > 10 µM (inactive) | 5.24 µM (inactive) | > 10 µM (inactive) | > 10 µM (inactive) | > 10 µM (inactive) | 3.1 µM (inactive) | > 10 µM (inactive) | 
2 | COc1ccc(/C=N/n2c(Cc3ccccc3)n[nH]c2=O)c(OC)c1 | 31 µM (inactive) | > 39.5 µM (inactive) | 30.4 µM (inactive) | 8.2 µM (inactive) | > 100 µM (inactive) | > 31.6 µM (inactive) | > 77.4 µM (inactive) | 28.8 µM (inactive) | > 100 µM (inactive) | > 100 µM (inactive) | > 100 µM (inactive) | > 100 µM (inactive) | 59.2 µM (inactive) | 29.4 µM (inactive) | 21.5 µM (inactive) | > 59.8 µM (inactive) | > 71.4 µM (inactive) | 9.71 µM (inactive) | > 100 µM (inactive) | 
3 | NCC(=O)OCN1C(=O)C2C3C=CC(C2C1=O)C1C2C(=O)N(COC(=O)CN)C(=O)C2C31 (centres undefined) | 19.6 µM (inactive) | 25.5 µM (inactive) | 24.5 µM (inactive) |  | 21 µM (inactive) | 18.2 µM (inactive) |  | 40.2 µM (inactive) | 28.6 µM (inactive) | 20.8 µM (inactive) |  | 16.9 µM (inactive) |  | 29.2 µM (inactive) |  | 21.4 µM (inactive) | 17.7 µM (inactive) | 32.3 µM (inactive) |  | 19.8 µM (inactive)
4 | CC1=C(C)SC(=C2Sc3c(n(C)c(=O)n(C)c3=O)S2)S1 | 17.4 µM (inactive) | 42.5 µM (inactive) | 45 µM (inactive) | 57.1 µM (inactive) | > 100 µM (inactive) | 89.9 µM (inactive) | > 100 µM (inactive) | 59.2 µM (inactive) | 62.7 µM (inactive) | > 100 µM (inactive) | > 100 µM (inactive) | > 100 µM (inactive) | > 100 µM (inactive) | 34.4 µM (inactive) | 55.3 µM (inactive) | 22.3 µM (inactive) | 33.7 µM (inactive) | 20.7 µM (inactive) | > 100 µM (inactive) | 
5 | O=C1/C(=C/c2ccccc2S)N=C(c2ccccc2)N1c1nc2ccc(Sc3ccccc3)cc2[nH]1 | 28.1 µM (inactive) | 36.6 µM (inactive) | 50.5 µM (inactive) | 22.1 µM (inactive) | 21 µM (inactive) | 20.4 µM (inactive) | 22.7 µM (inactive) | 49.4 µM (inactive) | 24.1 µM (inactive) | 27.6 µM (inactive) | 27 µM (inactive) | 35.4 µM (inactive) | 37.8 µM (inactive) | 37 µM (inactive) | 22 µM (inactive) | 17.8 µM (inactive) | 18.4 µM (inactive) | 22.3 µM (inactive) | 28.8 µM (inactive) | 
6 | Cc1cccc2c(N)c3cccc(C(=O)NCC[N+](C)(C)Cc4ccc([N+](=O)[O-])s4)c3nc12 | 1.98 µM (inactive) | 0.404 µM (active) | 2.69 µM (inactive) | 33.5 µM (inactive) | 1.85 µM (inactive) | 4.9 µM (inactive) | 11.1 µM (inactive) | 2.85 µM (inactive) | 2.88 µM (inactive) | 9.06 µM (inactive) | 2.23 µM (inactive) | 0.472 µM (active) | 8.2 µM (inactive) | 4.51 µM (inactive) | 43.8 µM (inactive) | 41 µM (inactive) | 11.6 µM (inactive) | 17.2 µM (inactive) | 13.6 µM (inactive) | 
7 | CC(=O)OC(=C(C#N)C#N)c1nccnc1C(C)=O | > 20 µM (inactive) | 11.9 µM (inactive) | > 20 µM (inactive) | 13.3 µM (inactive) | 11.2 µM (inactive) | 4.55 µM (inactive) | > 20 µM (inactive) | > 20 µM (inactive) | 11 µM (inactive) | 4.98 µM (inactive) | > 20 µM (inactive) | > 20 µM (inactive) | 9.29 µM (inactive) | > 20 µM (inactive) | > 20 µM (inactive) | > 20 µM (inactive) | 6.32 µM (inactive) | 3.96 µM (inactive) | > 20 µM (inactive) | 
8 | Oc1ccc(-c2nc(-c3cccnc3)c(-c3ccc(Cl)cc3)[nH]2)cc1O | 12 µM (inactive) | 20.1 µM (inactive) | 9.95 µM (inactive) | 10 µM (inactive) | 4.48 µM (inactive) | 13.9 µM (inactive) | 13.7 µM (inactive) | 4.34 µM (inactive) | > 100 µM (inactive) | 8.97 µM (inactive) | 11.5 µM (inactive) | 3.78 µM (inactive) | 14 µM (inactive) | 11.7 µM (inactive) | 14.1 µM (inactive) | 17.8 µM (inactive) | 13 µM (inactive) | 6.05 µM (inactive) | 11.4 µM (inactive) | 
9 | COc1cc(/C=C2/SC(c3ccccc3)N(c3cc(Cl)ccc3Cl)C2=O)cc(OC)c1OC (centres undefined) | > 100 µM (inactive) | > 100 µM (inactive) | > 100 µM (inactive) | > 100 µM (inactive) | 38.5 µM (inactive) | > 100 µM (inactive) | > 100 µM (inactive) | 44.9 µM (inactive) | 59 µM (inactive) | 35.7 µM (inactive) | 30.8 µM (inactive) | > 100 µM (inactive) | 62.8 µM (inactive) | > 100 µM (inactive) | 64.4 µM (inactive) | > 100 µM (inactive) | 59.7 µM (inactive) | 45.1 µM (inactive) | 30.1 µM (inactive) | 
10 | c1ccc(CN(Cc2ccccn2)Cn2cccn2)nc1 | 91.2 µM (inactive) | 54.6 µM (inactive) | 33 µM (inactive) |  | 29.5 µM (inactive) | 57.1 µM (inactive) |  |  | 36.6 µM (inactive) | 63.8 µM (inactive) |  | 29.2 µM (inactive) |  | 50.5 µM (inactive) |  | > 100 µM (inactive) | 43.9 µM (inactive) | > 100 µM (inactive) |  | 35.7 µM (inactive)
11 | COC1=N[C@H](C(C)C)C(OC)=N[C@H]1Cc1ccc(C[C@@H]2N=C(OC)[C@@H](C(C)C)N=C2OC)s1 | 45.6 µM (inactive) | 29 µM (inactive) | 29.4 µM (inactive) | > 100 µM (inactive) | 19.5 µM (inactive) | 22.1 µM (inactive) | 34.2 µM (inactive) | > 100 µM (inactive) | 32.4 µM (inactive) | 38.6 µM (inactive) | 20.3 µM (inactive) | 20 µM (inactive) | 22.6 µM (inactive) | 25.1 µM (inactive) | 52.6 µM (inactive) | 14.3 µM (inactive) | 20.8 µM (inactive) | > 100 µM (inactive) | 13.5 µM (inactive) | 
12 | COC(=O)/C=C\C(C#N)(C#N)/N=C/c1ccc(C)cc1 | 1.6 µM (inactive) | 17.7 µM (inactive) | 2.3 µM (inactive) | 5.02 µM (inactive) | 0.0673 µM (active) | 1.97 µM (inactive) | 18.2 µM (inactive) | 13.1 µM (inactive) | 3.04 µM (inactive) | 18 µM (inactive) | 1.67 µM (inactive) | 0.778 µM (active) | 2.28 µM (inactive) | 5.57 µM (inactive) | 3.1 µM (inactive) | 16.3 µM (inactive) | 12.6 µM (inactive) | 15.3 µM (inactive) | 1.79 µM (inactive) | 
13 | O=C(Nc1ccc(N2C(=O)CSC2c2ccccc2O)cc1)c1ccc(N2C(=O)CSC2c2ccccc2O)cc1 (centres undefined) | 43.7 µM (inactive) | 40.7 µM (inactive) | 35.6 µM (inactive) | 87.1 µM (inactive) | > 100 µM (inactive) | > 100 µM (inactive) | > 100 µM (inactive) | > 100 µM (inactive) | > 100 µM (inactive) | > 100 µM (inactive) | 46.3 µM (inactive) | > 100 µM (inactive) | 98.4 µM (inactive) | 64.4 µM (inactive) | > 100 µM (inactive) | 84.7 µM (inactive) | 77.4 µM (inactive) | 27.7 µM (inactive) | 43.3 µM (inactive) | 
14 | Oc1ccc2ccccc2c1-c1c(Nc2ccccc2)ccc2ccccc12 | 17.8 µM (inactive) | 18.5 µM (inactive) | 19.9 µM (inactive) | 16.3 µM (inactive) | 16.2 µM (inactive) | 19.9 µM (inactive) | 14 µM (inactive) | 5.73 µM (inactive) | 13.7 µM (inactive) | 17.9 µM (inactive) | 13 µM (inactive) | 17.7 µM (inactive) | 8.53 µM (inactive) | 15.6 µM (inactive) | > 34.7 µM (inactive) | 17.2 µM (inactive) | 13.6 µM (inactive) | 16.1 µM (inactive) | 18.8 µM (inactive) | 
15 | Cc1cc(C)c(C#N)c(SC(=S)NC(=O)c2ccccc2)n1 | > 100 µM (inactive) | > 100 µM (inactive) | > 100 µM (inactive) | > 100 µM (inactive) | > 100 µM (inactive) | > 100 µM (inactive) | > 100 µM (inactive) | > 100 µM (inactive) | > 100 µM (inactive) | > 100 µM (inactive) | > 100 µM (inactive) | > 100 µM (inactive) | > 100 µM (inactive) | > 100 µM (inactive) | > 100 µM (inactive) | > 100 µM (inactive) | > 100 µM (inactive) | 1.53 µM (inactive) | > 100 µM (inactive) | 
